Publication PMC5671655, “LASSBio-897 Reduces Lung Injury Induced by Silica Particles in Mice: Potential Interaction with the A2A Receptor” (Frontiers in Pharmacology, 2017)

Experiments:
adenosine A2A receptor [1] = molecular target: T1, adenosine A2A receptor (Homo sapiens, UniProt P29274); assay: radioligand competition with [3H]-adenosine; type: binding
T1 construct: gene ADORA2A; membrane preparation of HEK293 cells overexpressing the human A2A receptors

5-HT transporter = molecular target: T2, 5-HT transporter (Homo sapiens, UniProt P31645); assay: Cerep Diversity Profile screen, single concentration […]
T2 construct: gene SLC6A4
T2 sequence (P31645 whole entry): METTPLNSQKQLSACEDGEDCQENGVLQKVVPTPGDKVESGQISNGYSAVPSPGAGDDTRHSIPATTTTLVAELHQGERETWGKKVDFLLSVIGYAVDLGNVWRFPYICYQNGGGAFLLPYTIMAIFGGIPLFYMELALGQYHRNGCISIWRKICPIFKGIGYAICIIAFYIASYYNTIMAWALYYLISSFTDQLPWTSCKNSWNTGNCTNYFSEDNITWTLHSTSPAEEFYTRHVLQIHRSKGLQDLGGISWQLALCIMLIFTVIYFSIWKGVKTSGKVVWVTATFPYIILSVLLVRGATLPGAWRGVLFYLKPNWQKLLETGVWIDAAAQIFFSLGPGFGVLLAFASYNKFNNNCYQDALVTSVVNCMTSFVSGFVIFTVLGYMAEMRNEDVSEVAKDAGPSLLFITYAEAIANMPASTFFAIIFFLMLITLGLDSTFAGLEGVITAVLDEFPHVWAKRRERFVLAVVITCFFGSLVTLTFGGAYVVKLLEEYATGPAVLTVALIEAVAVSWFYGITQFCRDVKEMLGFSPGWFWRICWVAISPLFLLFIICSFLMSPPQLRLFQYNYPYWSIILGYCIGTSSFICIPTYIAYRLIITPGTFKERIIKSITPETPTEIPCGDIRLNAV

adenosine A2A receptor [2] = molecular target: T3, adenosine A2A receptor (Rattus norvegicus, UniProt P30543); assay: radioligand competition with [3H]-CGS21680; type: binding
T3 construct: gene Adora2a; rat striatum membrane preparation
T3 sequence (P30543 whole entry): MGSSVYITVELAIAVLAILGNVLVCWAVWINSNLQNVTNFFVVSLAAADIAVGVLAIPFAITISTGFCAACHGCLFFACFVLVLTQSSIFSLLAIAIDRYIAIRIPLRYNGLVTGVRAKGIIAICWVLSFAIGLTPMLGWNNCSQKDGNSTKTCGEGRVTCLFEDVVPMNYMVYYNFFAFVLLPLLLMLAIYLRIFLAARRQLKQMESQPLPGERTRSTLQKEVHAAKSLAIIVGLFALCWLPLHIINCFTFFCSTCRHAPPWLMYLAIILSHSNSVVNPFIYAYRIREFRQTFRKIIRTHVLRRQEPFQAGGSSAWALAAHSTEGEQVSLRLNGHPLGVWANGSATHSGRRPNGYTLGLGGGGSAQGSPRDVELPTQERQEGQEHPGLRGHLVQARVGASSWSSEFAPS

T1 sequence (P29274 whole entry): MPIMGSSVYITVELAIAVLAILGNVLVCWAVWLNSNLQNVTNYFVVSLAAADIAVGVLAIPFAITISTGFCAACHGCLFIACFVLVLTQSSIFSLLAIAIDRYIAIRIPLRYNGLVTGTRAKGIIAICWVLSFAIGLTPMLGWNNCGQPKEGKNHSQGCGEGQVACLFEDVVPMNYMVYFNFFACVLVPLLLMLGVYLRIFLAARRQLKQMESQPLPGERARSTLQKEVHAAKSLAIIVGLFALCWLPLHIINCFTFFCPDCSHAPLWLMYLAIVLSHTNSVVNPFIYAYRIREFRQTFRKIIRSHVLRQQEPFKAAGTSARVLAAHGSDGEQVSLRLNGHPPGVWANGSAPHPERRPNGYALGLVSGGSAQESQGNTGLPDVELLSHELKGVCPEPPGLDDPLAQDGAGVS

O=C(N/N=C/c1ccsc1)c1ccc2c(c1)OCO2 [LASSBio-897]
IC50 (adenosine A2A receptor [1]): 11.4 µM | inhibition at 10 µM (5-HT transporter): 56% | IC50 (adenosine A2A receptor [2]): 9.3 µM
